Data: ChEMBL document CHEMBL3994622, “Design and synthesis of new RAF kinase-inhibiting antiproliferative quinoline derivatives. Part 2: Diarylurea derivatives” (Eur J Med Chem, 2017)

Assays:
Type in all cases: functional
K562 = assay: Growth inhibition of human K562 cells assessed as cell growth at 10 uM incubated for 48 hrs by sulforhodamine B assay relative to control; conditions: K562, 48 h, read-out: Activity
RPMI-8226 = assay: Growth inhibition of human RPMI8226 cells assessed as cell growth at 10 uM incubated for 48 hrs by sulforhodamine B assay relative to control; conditions: RPMI-8226, 48 h, read-out: Activity
EKVX = assay: Growth inhibition of human EKVX cells assessed as cell growth at 10 uM incubated for 48 hrs by sulforhodamine B assay relative to control; conditions: read-out: Activity
HOP-62 = assay: Growth inhibition of human HOP62 cells assessed as cell growth at 10 uM incubated for 48 hrs by sulforhodamine B assay relative to control; conditions: HOP-62, 48 h, read-out: Activity
HOP-92 = assay: Growth inhibition of human HOP92 cells assessed as cell growth at 10 uM incubated for 48 hrs by sulforhodamine B assay relative to control; conditions: HOP-92, 48 h, read-out: Activity
COLO 205 = assay: Growth inhibition of human COLO205 cells assessed as cell growth at 10 uM incubated for 48 hrs by sulforhodamine B assay relative to control; conditions: COLO 205, 48 h, read-out: Activity
HCC 2998 = assay: Growth inhibition of human HCC2998 cells assessed as cell growth at 10 uM incubated for 48 hrs by sulforhodamine B assay relative to control; conditions: HCC 2998, 48 h, read-out: Activity
HCT-15 = assay: Growth inhibition of human HCT15 cells assessed as cell growth at 10 uM incubated for 48 hrs by sulforhodamine B assay relative to control; conditions: HCT-15, 48 h, read-out: Activity
HT-29 = assay: Growth inhibition of human HT-29 cells assessed as cell growth at 10 uM incubated for 48 hrs by sulforhodamine B assay relative to control; conditions: HT-29, 48 h, read-out: Activity
SW-620 = assay: Growth inhibition of human SW620 cells assessed as cell growth at 10 uM incubated for 48 hrs by sulforhodamine B assay relative to control; conditions: SW-620, 48 h, read-out: Activity
SF-295 = assay: Growth inhibition of human SF295 cells assessed as cell growth at 10 uM incubated for 48 hrs by sulforhodamine B assay relative to control; conditions: SF-295, 48 h, read-out: Activity
SF-539 = assay: Growth inhibition of human SF539 cells assessed as cell growth at 10 uM incubated for 48 hrs by sulforhodamine B assay relative to control; conditions: SF-539, 48 h, read-out: Activity
SNB-75 = assay: Growth inhibition of human SNB75 cells assessed as cell growth at 10 uM incubated for 48 hrs by sulforhodamine B assay relative to control; conditions: SNB-75, 48 h, read-out: Activity
U-251 = assay: Growth inhibition of human U251 cells assessed as cell growth at 10 uM incubated for 48 hrs by sulforhodamine B assay relative to control; conditions: U-251, 48 h, read-out: Activity
LOX IMVI = assay: Growth inhibition of human LOXIMVI cells assessed as cell growth at 10 uM incubated for 48 hrs by sulforhodamine B assay relative to control; conditions: read-out: Activity
Malme-3M = assay: Growth inhibition of human MALME-3M cells assessed as cell growth at 10 uM incubated for 48 hrs by sulforhodamine B assay relative to control; conditions: read-out: Activity
MDA-MB-435 = assay: Growth inhibition of human MDA-MB-435 cells assessed as cell growth at 10 uM incubated for 48 hrs by sulforhodamine B assay relative to control; conditions: MDA-MB-435, 48 h, read-out: Activity
SK-MEL-2 = assay: Growth inhibition of human SK-MEL-2 cells assessed as cell growth at 10 uM incubated for 48 hrs by sulforhodamine B assay relative to control; conditions: SK-MEL-2, 48 h, read-out: Activity
SK-MEL-28 = assay: Growth inhibition of human SK-MEL-28 cells assessed as cell growth at 10 uM incubated for 48 hrs by sulforhodamine B assay relative to control; conditions: SK-MEL-28, 48 h, read-out: Activity
SK-MEL-5 = assay: Growth inhibition of human SK-MEL-5 cells assessed as cell growth at 10 uM incubated for 48 hrs by sulforhodamine B assay relative to control; conditions: SK-MEL-5, 48 h, read-out: Activity
UACC-257 = assay: Growth inhibition of human UACC257 cells assessed as cell growth at 10 uM incubated for 48 hrs by sulforhodamine B assay relative to control; conditions: UACC-257, 48 h, read-out: Activity
OVCAR-3 = assay: Growth inhibition of human OVCAR3 cells assessed as cell growth at 10 uM incubated for 48 hrs by sulforhodamine B assay relative to control; conditions: OVCAR-3, 48 h, read-out: Activity
OVCAR-4 = assay: Growth inhibition of human OVCAR4 cells assessed as cell growth at 10 uM incubated for 48 hrs by sulforhodamine B assay relative to control; conditions: OVCAR-4, 48 h, read-out: Activity
OVCAR-8 = assay: Growth inhibition of human OVCAR8 cells assessed as cell growth at 10 uM incubated for 48 hrs by sulforhodamine B assay relative to control; conditions: OVCAR-8, 48 h, read-out: Activity
NCI/ADR-RES = assay: Growth inhibition of human NCI/ADR-RES cells assessed as cell growth at 10 uM incubated for 48 hrs by sulforhodamine B assay relative to control; conditions: read-out: Activity
786-0 = assay: Growth inhibition of human 786-0 cells assessed as cell growth at 10 uM incubated for 48 hrs by sulforhodamine B assay relative to control; conditions: 786-0, 48 h, read-out: Activity
RXF 393 = assay: Growth inhibition of human RXF393 cells assessed as cell growth at 10 uM incubated for 48 hrs by sulforhodamine B assay relative to control; conditions: RXF 393, 48 h, read-out: Activity
UO-31 = assay: Growth inhibition of human UO31 cells assessed as cell growth at 10 uM incubated for 48 hrs by sulforhodamine B assay relative to control; conditions: UO-31, 48 h, read-out: Activity
PC-3 = assay: Growth inhibition of human PC3 cells assessed as cell growth at 10 uM incubated for 48 hrs by sulforhodamine B assay relative to control; conditions: PC-3, 48 h, read-out: Activity
DU-145 = assay: Growth inhibition of human DU145 cells assessed as cell growth at 10 uM incubated for 48 hrs by sulforhodamine B assay relative to control; conditions: DU-145, 48 h, read-out: Activity
MCF7 = assay: Growth inhibition of human MCF7 cells assessed as cell growth at 10 uM incubated for 48 hrs by sulforhodamine B assay relative to control; conditions: MCF7, 48 h, read-out: Activity
BT-549 = assay: Growth inhibition of human BT549 cells assessed as cell growth at 10 uM incubated for 48 hrs by sulforhodamine B assay relative to control; conditions: BT-549, 48 h, read-out: Activity
T47D = assay: Growth inhibition of human T47D cells assessed as cell growth at 10 uM incubated for 48 hrs by sulforhodamine B assay relative to control; conditions: read-out: Activity

COc1cc2cc(Oc3ccc(NC(=O)Nc4ccc(Cl)c(Cl)c4)cc3)c(C)nc2cc1OC
growth at 10 µM (K562): 12.7% | growth at 10 µM (RPMI-8226): 4.2% | growth at 10 µM (EKVX): 21% | growth at 10 µM (HOP-62): 55.2% | growth at 10 µM (HOP-92): -9.31% | growth at 10 µM (COLO 205): 4.03% | growth at 10 µM (HCC 2998): 37.6% | growth at 10 µM (HCT-15): 18.9% | growth at 10 µM (HT-29): 10.9% | growth at 10 µM (SW-620): 23.4% | growth at 10 µM (SF-295): 0.69% | growth at 10 µM (SF-539): 38.5% | growth at 10 µM (SNB-75): 22.4% | growth at 10 µM (U-251): -32.3% | growth at 10 µM (LOX IMVI): 23.1% | growth at 10 µM (Malme-3M): 14.9% | growth at 10 µM (MDA-MB-435): 12.3% | growth at 10 µM (SK-MEL-2): -7.82% | growth at 10 µM (SK-MEL-28): 44.6% | growth at 10 µM (SK-MEL-5): -35% | growth at 10 µM (UACC-257): 1.38% | growth at 10 µM (OVCAR-3): -10% | growth at 10 µM (OVCAR-4): 31.9% | growth at 10 µM (OVCAR-8): 15% | growth at 10 µM (NCI/ADR-RES): 17.1% | growth at 10 µM (786-0): 20.3% | growth at 10 µM (RXF 393): 22.3% | growth at 10 µM (UO-31): 3.69% | growth at 10 µM (PC-3): 4.12% | growth at 10 µM (DU-145): 24.8% | growth at 10 µM (MCF7): 13.8% | growth at 10 µM (BT-549): 28.1% | growth at 10 µM (T47D): 60.9%
